The text below walks through data of patent US7928090B2, “External preparation composition” (Lion Corporation, priority 2002, dated 2011).

Data set [1] deals with back skin of hairless mice irradiated with UVB. Briefly: Wrinkle-improving test. Type of data set: in vivo, hairless mice (hos: HR-1). The conditions noted are these: 0.05% in ethanol/propylene glycol (7:3), 100 μL once a day, five times a week, 8 weeks; versus control group. The procedure:
Four (4) hairless mice per 1 group (hos: HR-1, 10 weeks of age, female) were irradiated on the back skin once a day with UVB at 50 mJ/cm^2 five times a week over a period of 10 weeks. After finishing irradiation, each 100 μL of an ethanol/propylene glycol (7:3) solution containing 0.05% of various acyl glucosamine derivatives shown in the following Table 3 was applied on the mouse back in a frequency of once a day and five times a week over 8 weeks.
After finishing application for 8 weeks, the degree of wrinkles was visually evaluated according to the following evaluation criteria and calculation equation. A control group applied with the ethanol/propylene glycol (7:3) solution was evaluated as a control in the same manner.
Evaluation Criteria of the Degree of Wrinkles:
Evaluation point 0: a lot of fine striations is present on the back and the flank; fine striations run in a direction from the head to the tail; and the striations appear or disappear with the motion of the mouse.
Evaluation point 1: all fine striations along the spine are not observed; a few shallow and coarse wrinkles run perpendicularly to the head-to-tail direction; and the striations appear or disappear with the motion of the mouse.
The respective bodies were evaluated by an evaluation point of a 0.5 unit to calculate an average point for the respective groups, and the wrinkle-improving rate was calculated for the respective groups according to the following equation (II). Wrinkle-improving rate (%)=[(average value of the control group−average value of a glucosamine derivative-applied group)/(average value of the control group)]×100 (II)

Data set [2] has the same test system. The experiment in a line: Coarse texture-improving test. In kind it is in vivo, hairless mice (hos: HR-1). As to conditions: 0.05% in ethanol/propylene glycol (7:3), 100 μL, 4 weeks; texture intersection points relative to non-irradiated group (control 24). The procedure:
Four (4) hairless mice per 1 group (hos: HR-1, 10 weeks of age, female) were irradiated on the back skin once a day with UVB at 40 mJ/cm^2 three times a week over a period of 6 weeks. After finishing irradiation, each 100 μL of an ethanol/propylene glycol (7:3) solution containing 0.05% of various acyl glucosamine derivatives shown in the following Table 4 or an ethanol/propylene glycol (7:3) solution as a control was applied on the mouse back in a frequency of once a day and five times a week over 4 weeks.
After finishing application, a replica agent (brand name SILFLO®; manufactured by UK FLEXICO DEVELOPMENTS LTD.) was used to obtain a replica of a mouse back skin. A replica of a UV-non-irradiated group (4 heads) was obtained as a control in the same manner.
The enlarged photographs of the respective replicas were taken through a macro lens (magnification: four times), and the photographs were used to evaluate “coarsening of the texture”.
The coarseness of the texture was defined by a “number of texture intersection point”, wherein a point in which three or more sulci cutis are joined is counted as one intersection point, and the number of the texture intersection points present in a square of 1 cm×1 cm was counted on the replica photograph.
An average point for the respective groups was calculated, and the texture-improving rate was calculated according to the following equation (III). Texture-improving rate (%)=[(number of texture intersection of applied group)/(number of texture intersection point of non-irradiated group)]×100 (III)

For data set [3], the system named is skin roughness in the inside of a forearm of a human being. The experiment in a line: Skin roughness-improving test (SDS-induced skin roughness). The conditions noted are these: hydrophilic ointment with 0.05%, twice a day, 3 days; conductance relative to ointment with no tested substance = 100. In kind it is in vivo. The procedure:
A 10% SDS solution was used to artificially form a skin roughness in the inside of a forearm of a human being, and a hydrophilic ointment blended with 0.05% of various acyl glucosamine derivatives shown in the following Table 5 was applied thereon twice a day.
The skin roughness-improving degree observed 3 days later after application was evaluated using a change in a stratum corneum water content as an index. The stratum corneum water content is measured in terms of a conductance (μS). The improving degree was shown by a relative value, wherein the conductance observed when applying the hydrophilic ointment blended with no acyl glucosamine derivative was set at 100, and the skin roughness-improving rate was calculated according to the following equation (IV). Skin roughness-improving rate (%)=[(conductance observed when applying the ointment blended with the tested substance)/(conductance observed when applying the ointment blended with no tested substance)]×100 (IV)

Data set [4] concerns acne patients. The experiment in a line: Acne-improvement evaluation. In kind it is in vivo, human. The conditions noted are these: essence with 0.05%, one month; for Evaluation X (worsened), number of subjects / Evaluation Δ (no change), number of subjects / Evaluation ⊚ (notably improved), number of subjects / Evaluation ◯ (improved), number of subjects: applied on face several times a day; for Acne treating effect: percentage of subjects rated improved or better. The procedure:
Prepared was an essence for acne shown in the following composition example in which 0.05% of various acyl glucosamine derivatives shown in the following Table 6 was blended. An essence which was not blended with an acyl glucosamine derivative was prepared as a control.
Sixty acne patients were picked up as subjects to apply everyday the respective essences on the faces thereof several times a day, and the therapeutic effect against the acnes was visually evaluated a month later according to four degrees of the following evaluation criteria.
In the four degree evaluation described above, improvement (∘) or better effect (⊚) was regarded as “effective for treating acnes”, and the subjects showing a treating effect were shown by a numerical value (percentage).

Data set [5] deals with pigmentation on the backs of color guinea pigs. The experiment in a line: Whitening evaluation (UV-induced pigmentation). In kind it is in vivo. Also on record: key: +++: notably improved; ++: improved; +: a little improved; ±: no change. As to conditions: 0.05% in ethanol/propylene glycol (7:3), 30 μL once a day, five times a week, 4 weeks; visual change in pigmentation. The procedure:
Back body hair of color guinea pigs were shaved by means of a hair clipper and a shaver, and they were irradiated with UV rays once a day, 4 times a week and 8 times in total, whereby 4 parts of pigmentation having an area of about 2.25 cm^2 were formed on the backs of the respective guinea pigs.
Each 30 μL of an ethanol/propylene glycol (7:3) solution containing 0.05% of various acyl glucosamine derivatives shown in the following Table 7 was applied thereon in a frequency of once a day and five times a week over 4 weeks, and a change in the pigmentation was visually evaluated according to four degrees of the following evaluation criteria. The solution containing no acyl glucosamine derivative was used for a comparative example.

In data set [6] the test system is guinea pig skin. Briefly: Continuous irritative test of guinea pig skin (Draize method). As to conditions: Table 1; 0.5% in ethanol/propylene glycol (7:3), 50 μL once a day, 3 days straight; total of erythema and edema, full marks 8 points. Type of data set: in vivo, guinea pig (Hartley series). The procedure: Each left and right two spots (4 spots/head) of applying parts having a frame of 2 cm×2 cm were provided on the back of a shaved guinea pig (Hartley series, 7 weeks of age, female, N=10), and each 50 μL of an ethanol/propylene glycol (7:3) solution containing 0.5% of the respective acyl glucosamine derivatives shown in the following Table 1 was applied once a day on the respective frames.
A skin irritative score after application for 3 days straight was evaluated according to the following evaluation criteria (Draize method). The above irritative score was shown by the total points (full marks: 8 points) of erythema and edema.
Evaluation Criteria of Skin Irritative Score:
3: middle to strong erythema
4: very strong erythema to crust
1: very slight edema formation
2: slight edema formation
3: middle edema formation
4: strong edema formation

The compound `CC(C=CC1=C(C)CCCC1(C)C)=CC=CC(C)=CC(=O)N[C@H]1C(O)O[C@H](CO)[C@@H](O)[C@@H]1O` (single isomer, unassigned) [N-retinoyl-D-glucosamine] yielded a Wrinkle-improving rate in data set [1] of 89%. For the same compound, the Texture-improving rate in data set [2] worked out at 75%. For the same compound, the Skin roughness-improving rate in data set [3] was found to be 127%. In addition, in data set [4], the “Evaluation X (worsened), number of subjects” value (shortened to “Evaluation X (worsened)”) was 0; the “Evaluation Δ (no change), number of subjects” value (“Evaluation Δ (no change)” below) was determined as 0; the “Evaluation ⊚ (notably improved), number of subjects” value (shortened to “Evaluation ⊚ (notably improved)”) amounted to 4; the “Evaluation ◯ (improved), number of subjects” value (“Evaluation ◯ (improved)” below) was 2. In data set [4], this compound displayed an Acne treating effect of 100%. The Whitening-improving effect result in data set [5] is given as “+++”.
`CCCCCCCCCCCCCCCCOCCOCCOC(=O)N[C@H]1C(O)O[C@H](CO)[C@@H](O)[C@@H]1O` (stereo partly drawn) [N-POE (2) hexadecyletheroxycarbonyl-D-glucosamine]: in data set [6], the Draize score is reported as 0.1 points. This compound also gave a Wrinkle-improving rate in data set [1] of 72%. The compound further showed a Texture-improving rate in data set [2] of 89%. In addition, the Skin roughness-improving rate in data set [3] amounted to 139%. For the same compound, in data set [4], the “Evaluation X (worsened)” value was 0; the “Evaluation Δ (no change)” value was determined as 2; the “Evaluation ⊚ (notably improved)” value was 0; the “Evaluation ◯ (improved)” value is on record as 3. The Acne treating effect in data set [4] came to 60%. Also, the Whitening-improving effect result in data set [5] is given as “++”.
In turn, `CCCCCCCCCCCCCCCCCCOCCOCCOCCOCCOCCOC(=O)N[C@H]1C(O)O[C@H](CO)[C@@H](O)[C@@H]1O` (stereo partly drawn) [N-POE (5) octadecyletheroxycarbonyl-D-glucosamine] yielded a Draize score in data set [6] of 0.2 points. Moreover, the Wrinkle-improving rate in data set [1] was 73%. In data set [2], this compound showed a Texture-improving rate of 92%. In data set [3], the Skin roughness-improving rate was 128%. In addition, in data set [4], the “Evaluation X (worsened)” value is 0; the “Evaluation Δ (no change)” value was determined as 3; the “Evaluation ⊚ (notably improved)” value is recorded as 0; the “Evaluation ◯ (improved)” value is listed as 2. Further, in data set [4], the Acne treating effect is 40%. The Whitening-improving effect result in data set [5] is “++”.
Consider `CCCCCCCCCCCCCCCCCCCCCCOCCOCCOCCOCCOCCOCCOCCOCCOCCOCCOC(=O)N[C@H]1C(O)O[C@H](CO)[C@@H](O)[C@@H]1O` (stereo partly drawn) [N-POE (10) docosyletheroxycarbonyl-D-glucosamine], for which the Draize score in data set [6] was 0.1 points. The same compound yielded a Wrinkle-improving rate in data set [1] of 82%. Also, the Texture-improving rate in data set [2] was 88%. The same compound came in with a Skin roughness-improving rate in data set [3] of 138%. Moreover, in data set [4], the “Evaluation X (worsened)” value turned out to be 0; the “Evaluation Δ (no change)” value is listed as 3; the “Evaluation ⊚ (notably improved)” value is 0; the “Evaluation ◯ (improved)” value is 2. This compound also yielded an Acne treating effect in data set [4] of 40%. The Whitening-improving effect result in data set [5] is on record as “++”.
